Earlier results as cited in PMC12005229, “Final results from the phase Ia/Ib study of the novel bromodomain and extra-terminal domain inhibitor, BI 894999, in patients with advanced solid tumors or diffuse large B-cell lymphoma” (ESMO Open, 2025).

Tests used:
[1] = tested on: patients with relapsed/refractory DLBCL; design: method as in PMID 34581757; conditions: in combination with venetoclax and rituximab, 39 patients with relapsed/refractory DLBCL; cited from earlier work
[2] = tested on: patients with relapsed/refractory acute myeloid leukemia; design: method as in PMID 33934351; conditions: 44 patients with relapsed/refractory acute myeloid leukemia; cited from earlier work

Structure (SMILES) | complete responses [1] | overall response rate [1] | efficacy of combination with venetoclax compared with monotherapy [2]
Cc1sc2c(c1C)C(c1ccc(Cl)cc1)=N[C@@H](CC(=O)NCCCN1CCN(C)CC1)c1nnc(C)n1-2 [RO6870810] | 20.5% | 38.5% | –
CCS(=O)(=O)Nc1ccc(Oc2ccc(F)cc2F)c(-c2cn(C)c(=O)c3[nH]ccc23)c1 [mivebresib] | – | – | higher efficacy in the combination group
